Where two headings read alike, the source gives them in different places.
Assays:
[1] = In vitro skin permeation and penetration of PEP005, flow through diffusion cells; format: in vitro ADME, pig
Source text: The in vitro skin permeation and penetration of PEP005 was investigated with various types of occlusion dressings, using flow through diffusion cells. Dressings were applied immediately (without formulation drying), as well as after the formulation had dried. Additionally, PEP005 might also be absorbed into the occlusion dressing, which also was investigated.
Methods: The in vitro permeation and penetration of PEP005 into pig ear skin was studied using PermeGear® flow through diffusion cells (n=6 per formulation). The skin diffusion experiment was allowed to proceed for 21 hours into a recipient phase consisting of 0.04 M isotonic phosphate buffer pH 7.4. Samples from the different skin layers and recipient phase were collected in order to determine flux and skin distribution of PEP005. The samples were analysed by LC-MS/MS.
The test formulation used is an aqueous based gel formulation containing; PEP005 0.5 mg/g, Benzyl Alcohol 9 mg/g, Isopropanol 300 mg/g, Citric acid 5.4 mg/g, Sodium Citrate dihydrate 1.4 mg/g, Hydroxyethyl Cellulose 15 mg/g and water up to 1 g, with a formulation pH of 3.2.
Full thickness skin from pig ears was used in the study. The ears were kept frozen at −18° C. until use. Before the experiment, the ears were placed in a refrigerator (2-8° C.) for slow defrosting. The hairs were removed using a veterinary hair trimmer. The skin was cleaned for subdermal fat using a scalpel, and two pieces of skin were cut from each ear. The pieces of skin were refrozen and kept for no longer than 4 weeks. […]
The used PermeGear® automated system incorporate nine flow through diffusion cells (1-9) made of clear glass, in which the donor and receptor chambers were separated by a diffusion membrane and held together by a pinch clamp. […] The specific volume was measured and registered for each cell. […]
Prior to application of the formulation, the experiment was started by starting the pump. […] The formulation was applied using a glass spatula and the residual amount of formulation was determined, thus giving the actual amount of formulation applied to the skin. […]

[2] = tested on: sBCC lesion on the trunk or extremities; format: in vivo
Source text: The primary objective of the clinical trial was to evaluate the safety of PEP005 Gel, 0.05% when administered for up to 3 consecutive days application (Day 1, 2 and 3), to a sBCC lesion on the trunk and extremities.
Another objective of the clinical trial was to evaluate the efficacy of PEP005 Gel, 0.05% when administered for up to 3 consecutive days application (Day 1, 2 and 3), to a sBCC lesion on the trunk and extremities.
This was a phase 2, multi-centre, parallel group, open-label trial to evaluate the safety and efficacy of PEP005 (ingenol mebutate) Gel, 0.05%, when administered for up to 3 consecutive days (Day 1, 2 and 3) to a sBCC lesion on the trunk or extremities.
The trial population was planned to include 75 subjects aged at least 18 years with a primary diagnosed and histologically confirmed sBCC located on the trunk or extremities which was suitable for excision.
Eligible subjects were randomised to receive physician-applied trial medication in one of the following 3 treatment groups:
Group 1) PEP005 Gel, 0.05%, up to 3 consecutive days treatment, occluded with an aluminium disk;
Group 2) PEP005 Gel, 0.05%, up to 3 consecutive days treatment, occluded with an Opsite™ disk;
Group 3) PEP005 Gel, 0.05%, up to 3 consecutive days treatment, not occluded.
Eligible subjects received PEP005 Gel on Days 1, 2 and 3. […] If tolerability to trial medication was maintained, the subjects received all 3 doses of PEP005 Gel, 0.05%, regardless of whether the sBCC lesion being treated was resolved or not.
Subsequent follow-up visits for safety assessments were made on Days 2, 3 (as applicable), 4 (as applicable), 8, 15, 29, 57, 85 and 120. Histological and clinical efficacy assessments were only conducted at Day 120. If trial medication was not administered on Day 2 a follow-up visit on Day 3 or 4 was not necessary, unless clinically indicated. If trial medication was not administered on Day 3 a follow-up visit on Day 4 was not necessary, unless clinically indicated.
The volume of PEP005 Gel applied to the selected treatment area was 30 μl for lesions with the longest axes of between 4-10 mm and 50 μl for lesions with the longest axes of between 11-15 mm.
The actual treatment analysis set included the same subjects as in the full analysis set, i.e. 75 randomised subjects. However, 2 subjects who received the wrong treatment were assigned to their actual treatment group, i.e. PEP005 Aluminium Disk.
Thus, in the actual treatment analysis set 27 subjects were included in PEP005 Aluminium Disk group and 24 subjects both in PEP005 Opsite™ Disk group and PEP005 No Occlusion group.

[3] = cited from earlier work

With `C/C=C(/C)C(=O)O[C@H]1C(C)=C[C@]23C(=O)[C@@H](C=C(CO)[C@@H](O)[C@]12O)[C@H]1[C@@H](C[C@H]3C)C1(C)C` [PEP005, 2-methyl-2(Z)-butenoic acid (1aR,2S,5R,5aS,6S,8aS,9R,10aR)-5,5a-dihydroxy-4-(hydroxymethyl)-1,1,7,9-tetramethyl-11-oxo-1a,2,5,5a,6,9,10,10a-octahydro-1H-2,8a-methanocyclopenta[a]cyclopropa[e]cyclodecen-6-yl ester] the “Increase in penetrated amount of PEP005 after occlusion compared to the non-occluded treatment” value ([1]; Study PMPN1028, all dressings) was 2-6 fold, the “Increase in permeation of PEP005 compared to the non-occluded treatment” value ([1]; aluminium foil, parafilm, Coloplast vinyl film and Compeed, Study PMPN1028) was 9-10 fold and the “Increase in skin permeation compared to the non-occluded treatment” value ([1]; semi-occlusive dressing Flexifix, Study PMPN1028) was 3 fold. The “Number of subjects who received 1 dose (dosing continued only if tolerated)” value (shortened to “Number of subjects who received 1 dose”) ([2]; Aluminium Disk group (n = 27)) was 22, the “Number of subjects who received 2 doses (dosing continued only if tolerated)” value (from here on “Number of subjects who received 2 doses”) ([2]; Aluminium Disk group (n = 27)) was 2 and the “Number of subjects who received 3 doses (dosing continued only if tolerated)” value (from here on “Number of subjects who received 3 doses”) ([2]; Aluminium Disk group (n = 27)) was 13. The “Subjects who received 1 dose (dosing continued only if tolerated)” value ([2]; Aluminium Disk group (n = 27)) was 81.5%, the “Subjects who received 2 doses (dosing continued only if tolerated)” value ([2]; Aluminium Disk group (n = 27)) was 7.4% and the “Subjects who received 3 doses (dosing continued only if tolerated)” value ([2]; Aluminium Disk group (n = 27)) was 11.1%. The “Number of subjects who received 1 dose” value ([2]; No Occlusion group (n = 24)) was 0, the “Number of subjects who received 2 doses” value ([2]; No Occlusion group (n = 24)) was 1 and the “Number of subjects who received 3 doses” value ([2]; No Occlusion group (n = 24)) was 23. The “Subjects who received 1 dose (dosing continued only if tolerated)” value ([2]; No Occlusion group (n = 24)) was 0.0%, the “Subjects who received 2 doses (dosing continued only if tolerated)” value ([2]; No Occlusion group (n = 24)) was 4.2% and the “Subjects who received 3 doses (dosing continued only if tolerated)” value ([2]; No Occlusion group (n = 24)) was 95.8%. For the same molecule, the “Number of subjects who received 1 dose” value ([2]; OpSite Disk group (n = 24)) was 0, the “Number of subjects who received 2 doses” value ([2]; OpSite Disk group (n = 24)) was 5 and the “Number of subjects who received 3 doses” value ([2]; OpSite Disk group (n = 24)) was 19. The “Subjects who received 1 dose (dosing continued only if tolerated)” value ([2]; OpSite Disk group (n = 24)) was 0.0%, the “Subjects who received 2 doses (dosing continued only if tolerated)” value ([2]; OpSite Disk group (n = 24)) was 20.8% and the “Subjects who received 3 doses (dosing continued only if tolerated)” value ([2]; OpSite Disk group (n = 24)) was 79.2%. The Stability in alcohols ([3]; alcohols such as benzyl alcohol and isopropyl alcohol) was “good stability” and the “Stability at low pH” value ([3]; low pH) was “good stability”.

Reference: US20130251782A1, “TOPICAL APPLICATION OF INGENOL MEBUTATE WITH OCCLUSION” (LEO LABORATORIES LIMITED, priority 2012, published 2013)
